In assay [1] the target is T1, Beta-secretase 1 (Homo sapiens, UniProt P56817). Briefly: Inhibition of human recombinant BACE1 at 2 uM by FRET assay.
In assay [2] the target is T1, Beta-secretase 1. The assay can be described thus: Inhibition of human recombinant BACE1 at 0.2 uM by FRET assay.
In assay [3] the target is T1, Beta-secretase 1.
Description: (§1) Inhibition of human recombinant BACE1 by FRET assay
In assay [4] the target is T1, Beta-secretase 1. This is another data set of the same source.
Description: as §1

Activity calls are given as the source filed them. The rule behind the calls is not given here.

T1 sequence (P56817 whole entry): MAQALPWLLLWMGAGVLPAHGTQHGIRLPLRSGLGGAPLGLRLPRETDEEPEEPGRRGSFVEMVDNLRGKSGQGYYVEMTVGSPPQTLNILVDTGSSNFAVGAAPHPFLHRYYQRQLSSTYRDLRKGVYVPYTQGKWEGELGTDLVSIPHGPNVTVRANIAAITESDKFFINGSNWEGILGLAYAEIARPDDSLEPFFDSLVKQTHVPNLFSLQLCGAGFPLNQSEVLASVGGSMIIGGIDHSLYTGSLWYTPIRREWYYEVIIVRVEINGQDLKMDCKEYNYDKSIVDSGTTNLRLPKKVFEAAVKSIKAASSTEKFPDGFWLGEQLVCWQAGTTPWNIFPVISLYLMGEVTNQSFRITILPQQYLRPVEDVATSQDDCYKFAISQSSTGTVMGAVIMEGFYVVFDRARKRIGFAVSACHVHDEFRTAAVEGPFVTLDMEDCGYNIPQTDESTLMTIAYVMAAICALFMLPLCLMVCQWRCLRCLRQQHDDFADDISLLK

Consider `C[C@@H](NC(=O)c1cccc(C(=O)N[C@@H](Cc2ccccc2)[C@H](O)C(=O)Nc2cccc(-c3nn[nH]n3)c2)n1)c1ccccc1`, for which, at Beta-secretase 1 [1], the inhibition (in general, the change of the read-out against control, counted positive when it falls) was determined as 66%.
As to `O=C(N[C@@H](Cc1ccccc1)[C@H](O)C(=O)Nc1cccc(-c2nn[nH]n2)c1)c1cc(=O)cc(C(=O)N2COC[C@@H]2c2ccccc2)[nH]1`, the inhibition amounted to 36% on Beta-secretase 1 [2] and 83% at Beta-secretase 1 [1].
`C[C@@H](NC(=O)c1cc(=O)cc(C(=O)N[C@@H](Cc2ccccc2)[C@H](O)C(=O)Nc2cccc(-c3nn[nH]n3)c2)[nH]1)c1ccccc1`: the inhibition on Beta-secretase 1 [1] was found to be 51%.
In the case of `O=C(N[C@@H](Cc1ccccc1)[C@H](O)C(=O)Nc1cccc(-c2nnn[nH]2)c1)c1cc(O)cc(C(=O)N2COC[C@@H]2c2ccccc2)n1`, the midpoint of inhibition on Beta-secretase 1 [3], the IC50, lay at 360 nM.
Regarding `CC(C)(NC(=O)c1cc(=O)cc(C(=O)N[C@@H](Cc2ccccc2)[C@H](O)C(=O)Nc2cccc(-c3nn[nH]n3)c2)[nH]1)c1ccccc1`, the inhibition at Beta-secretase 1 [1] worked out at 65%.
For `O=C(N[C@@H](Cc1ccccc1)[C@H](O)C(=O)Nc1cccc(-c2nn[nH]n2)c1)c1cc(=O)cc(C(=O)N2COC[C@@H]2c2ccccc2)o1`, the inhibition came out at 78% at Beta-secretase 1 [2] and 96% on Beta-secretase 1 [1]. Also, on Beta-secretase 1 [3], the IC50 – broadly, the concentration that gives 50% inhibition – was found to be 50 nM.
In the case of `CS(=O)(=O)Oc1cc(C(=O)N[C@@H](Cc2ccccc2)[C@H](O)C(=O)Nc2cccc(-c3nnn[nH]3)c2)nc(C(=O)N2COC[C@@H]2c2ccccc2)c1`, half-maximal inhibition against Beta-secretase 1 [3] (IC50) was put at 96 nM. In other words, the double-digit nanomolar range.
For the compound `O=C(N[C@@H](Cc1ccccc1)[C@H](O)C(=O)Nc1cccc(-c2nn[nH]n2)c1)c1cccc(C(=O)N2COC[C@@H]2c2ccccc2)n1`, the inhibition on Beta-secretase 1 [2] worked out at 63%; at Beta-secretase 1 [1], 93%.
For `CS(=O)(=O)Oc1cc(C(=O)N[C@@H](Cc2ccccc2)[C@H](O)C(=O)Nc2cccc(-c3nn[nH]n3)c2)nc(C(=O)N2COC[C@@H]2c2ccccc2)c1` the same measures were 73% and 96%.
For the compound `C[C@@H](NC(=O)c1cc(=O)cc(C(=O)N[C@@H](Cc2ccccc2)[C@H](O)C(=O)Nc2cccc(-c3nn[nH]n3)c2)o1)c1ccccc1`, the inhibition at Beta-secretase 1 [1] worked out at 70%.
Consider `CC(C)(NC(=O)c1cc(OS(C)(=O)=O)cc(C(=O)N[C@@H](Cc2ccccc2)[C@H](O)C(=O)Nc2cccc(-c3nn[nH]n3)c2)n1)c1ccccc1`, for which, on Beta-secretase 1 [1], the inhibition was found to be 84%.
On to `O=C(N[C@@H](Cc1ccccc1)[C@H](O)C(=O)Nc1cccc(-c2nnn[nH]2)c1)c1cccc(C(=O)N2COC[C@@H]2c2ccccc2)n1`, for which it took 140 nM to reach half-maximal inhibition on Beta-secretase 1 [3] (IC50).
With `CCCN(CCC)C(=O)c1cccc(C(=O)N[C@@H](Cc2ccccc2)[C@@H](O)C(=O)Nc2cccc(C(=O)O)c2)n1`, the result on Beta-secretase 1 [4] was inactive.
Take `CC(C)(NC(=O)c1cccc(C(=O)N[C@@H](Cc2ccccc2)[C@H](O)C(=O)Nc2cccc(-c3nn[nH]n3)c2)n1)c1ccccc1`: the inhibition at Beta-secretase 1 [1] was determined as 69%.
With `CC(C)(NC(=O)c1cc(=O)cc(C(=O)N[C@@H](Cc2ccccc2)[C@H](O)C(=O)Nc2cccc(-c3nn[nH]n3)c2)o1)c1ccccc1`, the inhibition at Beta-secretase 1 [1] was 81%.

These data come from ChEMBL document CHEMBL1141518, “Novel non-peptidic and small-sized BACE1 inhibitors” (Bioorg Med Chem Lett, 2008).
